US12071426B2, “IRE1 small molecule inhibitors” (Cornell University, priority 2018, dated 2024)

Key:
[1] = biological target: T1, IRE1a (Homo sapiens, UniProt O75460); test: In vitro FRET assay (XBP1 RNA probe cleavage); format: biochemical; conditions: SignalChem IRE1a protein 2 nM, fluorescence 485/515 nm
Experimental: In vitro FRET assay was performed to evaluate the ability of select compounds to inhibit IRE1, the results of which are summarized in Table 3. To perform the in vitro FRET assay, 1× complete assay buffer (CAB; […], 50 mM sodium citrate pH 7.15, 1 mM magnesium acetate, 0.02% tween 20) was used to dilute SignalChem IRE1a protein to a final concentration of 2 nM. Selected compounds were serially diluted with DMSO in a non-binding black 384-well plate for a total of 15 ul in each well. 2 ul of the serially diluted compound or DMSO control were then added to new wells containing 98 ul of 1× CAB, for a total volume of 100 ul, 10 ul of which were then transferred to wells of a new plate. 5 ul of the diluted IRE1a was then added to each well. 5 ul of a […] XBP1 RNA probe was then added to each well. Fluorescence was then read over 30 minutes in kinetic mode (485/515 nm).
Two RNA probes were used, XBP1 wildtype (SEQ ID NO: 2) which is able to be spliced by active IRE1a or XBP1 mutant (SEQ ID NO: 3) which is unable to be spliced. Each probe contained a 5′ 6-FAM modification and a 3′ IOWA Black FQ modification.
A second FRET assay was performed to assess ATP-mediated inhibition. In this case, compounds and IRE1a were prepared and combined as discussed above, with the addition of ATP up to 1 mM final concentration. […] Plates were then read over 30 minutes in kinetic mode (485/515 nm).

[2] = biological target: T1, IRE1a; test: IRE1a Endoribonuclease Nanoluciferase Assay (XBP1 luciferase reporter in 293T cells); format: cell-based; design: endogenous in cells; host or cells: 293T cells; conditions: 293T cells transfected with XBP1 luciferase reporter plasmid, ER stressors +/- inhibitors
Experimental: Compounds disclosed herein were assessed for disruption of IRE1 signaling using a IRE1a Endoribonuclease Nanoluciferase Assay. Briefly, 2.5×10^6 293T cells were seeded in a 10 cm^2 tissue culture plate. About 24 hours later, the cells were transfected with Effectene. In a 15 mL tube, the following was added: 2 ug XBP1 luciferase reporter plasmid (PGK-Luc2-P2A-XBP1u-Nanoluciferase-PEST); 300 ul EC buffer; and 16 ul Enhancer, followed by incubation at room temp for 5 minutes. Next, 60 ul Effectene (Qiagen 301427) was added, followed by incubation at room temperature for 10 minutes. 2.6 mL cDMEM media was added. Old media was aspirated from the cells, followed by addition of 7 mL fresh media. Full transfection mixture was added dropwise to cells. Cells were incubated for 6 hours, followed by trypsinization, centrifugation and resuspension in 11 mL fresh cDMEM media. 100 uL of cells were plated per a well in a 96 well plate. A day later, ER stressors of choice +/− inhibitors were added. To harvest, media was aspirated from cells completely, then 50 uL 1× passive lysis buffer (Promega: E1941) was added per well and put on shaker (300 rpm) for 30 minutes at room temperature. […] Plates were read on luminometer, 1000 ms integration time per well. […] Plates were read on luminometer, 1000 ms second integration time per well. […]

[3] = Microsome stability assay; format: in vitro ADME; conditions: liver microsomes, 1 μM, 37° C., 0.5 mg/ml microsomal protein
Experimental: The formic acid salt of a compound from Table 1 is tested under the microsome stability assay outlined below. Test compounds are incubated at 37° C. with liver microsomes (pooled from multiple donors) at 1 μM in the presence of a NADPH regenerating system at 0.5 mg/ml microsomal protein. Positive controls included Testosterone (3A4 substrate), Propafenone (2D6) and Diclofenac (2C9), which are incubated with microsomes in the presence of an NADPH regenerating system. At time points (0, 5, 10, 20, 30 and 60 minutes), samples are removed and immediately mixed with cold acetonitrile containing internal standard (IS). Test compounds incubated with microsomes without the NADPH regenerating system for 60 min is also included. A single point for each test condition (n=1) is obtained, and samples are analyzed by LC/MS/MS. Disappearance of the test compound is assessed based on peak area ratios of analyte/IS (no standard curve). […] Compound 1 was tested and had 45% or more of parent compound remaining after a 60 minute incubation.

T1 sequence (O75460 19-977): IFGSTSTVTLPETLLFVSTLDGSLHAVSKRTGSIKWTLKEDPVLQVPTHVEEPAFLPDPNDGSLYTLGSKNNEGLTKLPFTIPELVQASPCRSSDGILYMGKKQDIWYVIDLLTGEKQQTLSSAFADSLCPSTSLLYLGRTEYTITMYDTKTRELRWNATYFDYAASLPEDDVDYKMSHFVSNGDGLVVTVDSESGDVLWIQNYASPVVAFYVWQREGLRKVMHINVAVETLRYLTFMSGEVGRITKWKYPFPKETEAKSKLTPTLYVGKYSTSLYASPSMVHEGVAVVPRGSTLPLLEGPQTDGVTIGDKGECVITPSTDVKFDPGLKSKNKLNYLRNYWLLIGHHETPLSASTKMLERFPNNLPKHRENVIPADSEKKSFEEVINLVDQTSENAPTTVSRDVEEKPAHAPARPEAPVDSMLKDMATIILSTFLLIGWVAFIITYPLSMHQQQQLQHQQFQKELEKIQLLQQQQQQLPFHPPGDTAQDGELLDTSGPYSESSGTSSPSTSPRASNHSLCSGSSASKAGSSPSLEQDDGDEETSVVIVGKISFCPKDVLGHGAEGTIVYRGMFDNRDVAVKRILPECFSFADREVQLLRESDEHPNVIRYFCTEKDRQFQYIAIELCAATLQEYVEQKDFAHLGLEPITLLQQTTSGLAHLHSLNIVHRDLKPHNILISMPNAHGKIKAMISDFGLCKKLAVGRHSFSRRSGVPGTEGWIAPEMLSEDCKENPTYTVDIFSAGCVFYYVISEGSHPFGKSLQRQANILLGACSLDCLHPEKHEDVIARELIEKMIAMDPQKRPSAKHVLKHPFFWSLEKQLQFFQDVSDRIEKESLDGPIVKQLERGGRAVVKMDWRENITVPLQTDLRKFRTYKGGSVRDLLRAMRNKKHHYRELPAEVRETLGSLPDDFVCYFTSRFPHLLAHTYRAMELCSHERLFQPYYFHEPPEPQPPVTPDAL

Compound | IC50 [1] | EC50 [2] | parent compound remaining after a 60 minute incubation [3]
CCc1cc(-c2ccc(NS(=O)(=O)c3ccccc3Cl)nc2C)nc2cnc(N[C@H]3CC[C@H](N(C)C)CC3)nc12 [Compound 2, 2-chloro-N-(5-(2-(((1r,4r)-4-(dimethylamino)cyclohexyl)-amino)-8-ethylpyrido[3,2-d]-pyrimidin-6-yl)-6-methyl-pyridin-2-yl)benzenesulfon-amide] | ≤ 5 nM | ≤ 5 nM | –
CCc1cc(-c2ccc(NS(=O)(=O)c3cnccc3Cl)nc2C)cc2cnc(N[C@H]3CC[C@H](N(C)C)CC3)nc12 [Compound 1, 4-chloro-N-(5-(2-(((1r,4r)-4-(dimethylamino)cyclohexyl)-amino)-8-ethylquinazolin-6-yl)-6-methylpyridin-2-yl)-pyridine-3-sulfonamide] | ≤ 5 nM | ≤ 5 nM | ≥ 45%
